Measured values taken from ChEMBL document CHEMBL1250502, “An alignment independent 3D QSAR study of the antiproliferative activity of 1,2,4,5-tetraoxanes” (Eur J Med Chem, 2010).

Key:
HeLa = assay: Cytotoxicity against human HeLa cells; type: functional, cell-based; conditions: Homo sapiens, HeLa; read-out: pIC50 (converted)
[1] = Cytotoxicity against human Fem-X cells; type: functional, cell-based; conditions: Homo sapiens, Fem-X; read-out: pIC50 (converted)

Structure (SMILES) | IC50 (HeLa) | IC50 [1]
CCCNC(=O)CC[C@@H](C)[C@H]1CC[C@H]2[C@@H]3CC[C@@H]4C[C@]5(CC[C@]4(C)[C@H]3C[C@H](OC(C)=O)[C@]12C)OO[C@@]1(CC[C@@]2(C)[C@H](CC[C@@H]3[C@@H]2C[C@H](OC(C)=O)[C@]2(C)[C@@H]([C@H](C)CCC(=O)NCCC)CC[C@@H]32)C1)OO5 | 33.1 µM | 22.9 µM
COC(=O)CC[C@@H](C)[C@H]1CC[C@H]2[C@@H]3CC[C@@H]4CC5(CC[C@]4(C)[C@H]3C[C@H](OC(C)=O)[C@]12C)OOC1(CCC2(CCCC2)CC1)OO5 | 10.7 µM | 42.7 µM
COC(=O)CC[C@@H](C)[C@H]1CC[C@H]2[C@@H]3CC[C@@H]4CC5(CC[C@]4(C)[C@H]3C[C@H](OC(C)=O)[C@]12C)OOC1(CCC2(CCCCCCC2)CC1)OO5 | 10.2 µM | 51.3 µM
CCCN(CCC)C(=O)CC[C@@H](C)[C@H]1CC[C@H]2[C@@H]3CC[C@@H]4C[C@]5(CC[C@]4(C)[C@H]3C[C@H](OC(C)=O)[C@]12C)OO[C@@]1(CC[C@@]2(C)[C@H](CC[C@@H]3[C@@H]2C[C@H](OC(C)=O)[C@]2(C)[C@@H]([C@H](C)CCC(=O)N(CCC)CCC)CC[C@@H]32)C1)OO5 | 105 µM | 47.9 µM
CC(=O)O[C@H]1C[C@H]2[C@@H](CC[C@@H]3C[C@]4(CC[C@@]32C)OO[C@@]2(CC[C@@]3(C)[C@H](CC[C@@H]5[C@@H]3C[C@H](OC(C)=O)[C@]3(C)[C@@H]([C@H](C)CCC(=O)N6CCCCC6)CC[C@@H]53)C2)OO4)[C@@H]2CC[C@H]([C@H](C)CCC(=O)N3CCCCC3)[C@@]12C | 89.1 µM | 79.4 µM
CC(=O)O[C@H]1C[C@H]2[C@@H](CC[C@@H]3C[C@]4(CC[C@@]32C)OO[C@@]2(CC[C@@]3(C)[C@H](CC[C@@H]5[C@@H]3C[C@H](OC(C)=O)[C@]3(C)[C@@H]([C@H](C)CCC=O)CC[C@@H]53)C2)OO4)[C@@H]2CC[C@H]([C@H](C)CCC=O)[C@@]12C | 3.72 µM | 3.09 µM
CC(=O)O[C@H]1C[C@H]2[C@@H](CC[C@@H]3C[C@]4(CC[C@@]32C)OO[C@@]2(CC[C@@]3(C)[C@H](CC[C@@H]5[C@@H]3C[C@H](OC(C)=O)[C@]3(C)[C@@H]([C@H](C)CCC(=O)O)CC[C@@H]53)C2)OO4)[C@@H]2CC[C@H]([C@H](C)CCC(=O)O)[C@@]12C | 5.25 µM | 4.17 µM
COC(=O)CNC(=O)CC[C@@H](C)[C@H]1CC[C@H]2[C@@H]3CC[C@@H]4C[C@]5(CC[C@]4(C)[C@H]3C[C@H](OC(C)=O)[C@]12C)OO[C@]1(CC[C@@]2(C)[C@H](CC[C@@H]3[C@@H]2C[C@H](OC(C)=O)[C@]2(C)[C@@H]([C@H](C)CCC(=O)NCC(=O)OC)CC[C@@H]32)C1)OO5 | 3.63 µM | 4.68 µM
CC(=O)O[C@H]1C[C@H]2[C@@H](CC[C@@H]3C[C@]4(CC[C@@]32C)OO[C@]2(CC[C@@]3(C)[C@H](CC[C@@H]5[C@@H]3C[C@H](OC(C)=O)[C@]3(C)[C@@H]([C@H](C)CCC(=O)N6CCCCC6)CC[C@@H]53)C2)OO4)[C@@H]2CC[C@H]([C@H](C)CCC(=O)N3CCCCC3)[C@@]12C | 120 µM | 102 µM
CC(=O)O[C@H]1C[C@H]2[C@@H](CC[C@@H]3C[C@]4(CC[C@@]32C)OO[C@]2(CC[C@@]3(C)[C@H](CC[C@@H]5[C@@H]3C[C@H](OC(C)=O)[C@]3(C)[C@@H]([C@H](C)CCC(N)=O)CC[C@@H]53)C2)OO4)[C@@H]2CC[C@H]([C@H](C)CCC(N)=O)[C@@]12C | 6.03 µM | 6.17 µM
CCCNC(=O)CC[C@@H](C)[C@H]1CC[C@H]2[C@@H]3CC[C@@H]4C[C@]5(CC[C@]4(C)[C@H]3C[C@H](OC(C)=O)[C@]12C)OO[C@]1(CC[C@@]2(C)[C@H](CC[C@@H]3[C@@H]2C[C@H](OC(C)=O)[C@]2(C)[C@@H]([C@H](C)CCC(=O)NCCC)CC[C@@H]32)C1)OO5 | 8.32 µM | 25.7 µM
CC(=O)O[C@H]1C[C@H]2[C@@H](CC[C@@H]3C[C@]4(CC[C@@]32C)OO[C@]2(CC[C@@]3(C)[C@H](CC[C@@H]5[C@@H]3C[C@H](OC(C)=O)[C@]3(C)[C@@H]([C@H](C)CCC(=O)O)CC[C@@H]53)C2)OO4)[C@@H]2CC[C@H]([C@H](C)CCC(=O)O)[C@@]12C | 9.12 µM | 7.59 µM
COC(=O)CC[C@@H](C)[C@H]1CC[C@H]2[C@@H]3CC[C@@H]4C[C@]5(CC[C@]4(C)[C@H]3C[C@H](OC(C)=O)[C@]12C)OO[C@]1(CC[C@@]2(C)[C@H](CC[C@@H]3[C@@H]2C[C@H](OC(C)=O)[C@]2(C)[C@@H]([C@H](C)CCC(=O)OC)CC[C@@H]32)C1)OO5 | 20.4 µM | 19.5 µM
COC(=O)CC[C@@H](C)[C@H]1CC[C@H]2[C@@H]3CC[C@@H]4CC5(CC[C@]4(C)[C@H]3C[C@H](OC(C)=O)[C@]12C)OOC1(CCCCC1)OO5 | 18.6 µM | 52.5 µM
CCCN(CCC)C(=O)CC[C@@H](C)[C@H]1CC[C@H]2[C@@H]3CC[C@@H]4CC5(CC[C@]4(C)[C@H]3C[C@H](OC(C)=O)[C@]12C)OOC1(CCCCC1)OO5 | 28.2 µM | 38.9 µM
CC(=O)O[C@H]1C[C@H]2[C@@H](CC[C@@H]3CC4(CC[C@@]32C)OOC2(CCCCC2)OO4)[C@@H]2CC[C@H]([C@H](C)CCC(N)=O)[C@@]12C | 5.25 µM | 6.03 µM
